Experiments:
[1] = test system: crabgrass, large; experiment: Test A postemergence; format: in vivo, Digitaria sanguinalis; settings: Digitaria sanguinalis, post-emergence, 240 h, 0 to 100 scale (0 no effect, 100 complete control), approx. 10 d, read-out: Plant response rating, Crabgrass, Large; for pest or weed control at 125 g/ha: 125 g ai/ha; for pest or weed control at 500 g/ha: 500 g ai/ha
In short: (§1)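 Test chemicals, formulated in a surfactant-containing non-phytotoxic solvent mixture, are applied either as a directed soil spray to newly planted seeds or as a postemergence application to plants at the one- to two-leaf stage (2–10 cm). All plants grow in a loam soil and sand blend.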

[2] = test system: morningglory; experiment: Test A postemergence; format: in vivo, Ipomoea spp.; settings: Ipomoea, post-emergence, 240 h, 0 to 100 scale (0 no effect, 100 complete control), approx. 10 d, read-out: Plant response rating, Morningglory; for pest or weed control at 125 g/ha: 125 g ai/ha; for pest or weed control at 500 g/ha: 500 g ai/ha
In short: as §1

[3] = test system: ryegrass, Italian; experiment: Test C preemergence; format: in vivo, Lolium multiflorum; settings: for Ryegrass, Italian plant response rating (0 to 100): Preemergence, visual rating after 13 to 15 d; for Plant response rating (scale of 0 to 100 where 0 is no effect and 100 is complete control): Ryegrass, Italian, preemergence
From the text: Seeds of plant species selected from blackgrass (Alopecurus myosuroides), ryegrass, Italian (Italian ryegrass, Lolium multiflorum), wheat (winter wheat, Triticum aestivum), galium (catchweed bedstraw, Galium aparine), corn (Zea mays), crabgrass, large (large crabgrass, Digitaria sanguinalis), foxtail, giant, (giant foxtail, Setaria faberii), johnsongrass (Sorghum halepense), lambsquarters (Chenopodium album), morningglory (Ipomoea coccinea), nutsedge, yellow (yellow nutsedge, Cyperus esculentus), pigweed (Amaranthus retroflexus), ragweed (common ragweed, Ambrosia elatior), soybean (Glycine max), barnyardgrass (Echinochloa crus-galli), oilseed rape (Brassica napus), waterhemp (common waterhemp, Amaranthus rudis), and velvetleaf (Abutilon theophrasti) were planted into a blend of loam soil and sand and treated preemergence with test chemicals formulated in a non-phytotoxic solvent mixture which included a surfactant. At the same time, plants selected from these crop and weed species and also chickweed (common chickweed, Stellaria media), oat, wild (wild oat, Avena fatua), and kochia (Kochia scoparia), were planted in pots containing Sunshine Redi-Earth® planting medium comprising spaghnum peat moss, vermiculite, starter nutrients and dolomitic limestone and treated with postemergence applications of test chemicals formulated in the same manner. Plants ranged in height from 2 to 18 cm (1- to 4-leaf stage) for postemergence treatments. […] A dash (-) response means no test result.

[4] = test system: kochia; experiment: Test A postemergence; format: in vivo, Kochia scoparia; settings: 0 to 100 scale (0 no effect, 100 complete control), approx. 10 d
From the text: Seeds of plant species selected from barnyardgrass (Echinochloa crus-galli), crabgrass, large (large crabgrass, Digitaria sanguinalis), kochia (Kochia scoparia), ragweed (common ragweed, Ambrosia elatior), foxtail, giant (giant foxtail, Setaria faberii), morningglory (Ipomoea spp.), pigweed (Amaranthus retroflexus), velvetleaf (Abutilon theophrasti), ryegrass, Italian (Italian ryegrass, Lolium multiflorum), wheat (Triticum aestivum), and corn (Zea mays) were planted into a blend of loam soil and sand and treated preemergence with a directed soil spray using test chemicals formulated in a non-phytotoxic solvent mixture which included a surfactant.
At the same time, plants selected from these crop and weed species and also blackgrass (Alopecurus myosuroides), and galium (catchweed bedstraw, Galium aparine), were planted in pots containing the same blend of loam soil and sand and treated with postemergence applications of test chemicals formulated in the same manner. Plants ranged in height from 2 to 10 cm and were in the one- to two-leaf stage for the postemergence treatment. Treated plants and untreated controls were maintained in a greenhouse for approximately 10 d, after which time all treated plants were compared to untreated controls and visually evaluated for injury. Plant response ratings, summarized in Table A, are based on a 0 to 100 scale where 0 is no effect and 100 is complete control. A dash (-) response means no test result.

[5] = test system: pigweed; experiment: Test D postemergence; format: in vivo, Amaranthus retroflexus; settings: scale 0 to 100
From the text: (§2) Seeds of plant species selected from bluegrass (annual bluegrass, Poa annua), blackgrass (Alopecurus myosuroides), canarygrass (Phalaris minor), chickweed (common chickweed, Stellaria media), galium (catchweed bedstraw, Galium aparine), bromegrass, down (downy bromegrass, Bromus tectorum), Russian thistle (Salsola kali), field poppy (Papaver rhoeas), field violet (Viola arvensis), foxtail, green (green foxtail, Setaria viridis), deadnettle (henbit deadnettle, Lamium amplexicaule), ryegrass, Ital. (Italian ryegrass, Lolium multiflorum), kochia (Kochia scoparia), lambsquarters (Chenopodium album), oilseed rape (Brassica napus), pigweed (Amaranthus retroflexus), chamomile (scentless chamomile, Matricaria inodora), speedwell (bird's-eye speedwell, Veronica persica), barley, spring (spring barley, Hordeum vulgare), wheat, spring (spring wheat, Triticum aestivum), buckwheat, wild (wild buckwheat, Polygonum convolvulus), wild mustard (Sinapis arvensis), oat, wild (wild oat, Avena fatua), radish, wild (wild radish, Raphanus raphanistrum), […]), barley, winter (winter barley, Hordeum vulgare), and wheat, winter (winter wheat, Triticum aestivum) were planted into a silt loam soil and treated preemergence with test chemicals formulated in a non-phytotoxic solvent mixture which included a surfactant. At the same time, these species were planted in pots containing Sunshine Redi-Earth® planting medium comprising spaghnum peat moss, vermiculite, starter nutrients and dolomitic limestone and treated with postemergence applications of the test chemicals formulated in the same manner. Plants ranged in height from 2 to 18 cm (1- to 4-leaf stage). Treated plants and controls were maintained in a controlled growth environment for 14 to 21 d after which time all species were compared to controls and visually evaluated. […] A dash (-) response means no test result.

[6] = test system: chamomile; experiment: Test D postemergence; format: in vivo, Matricaria inodora; settings: scale 0 to 100
From the text: as §2

[7] = test system: pigweed; experiment: Test D preemergence; format: in vivo, Amaranthus retroflexus; settings: scale 0 to 100
From the text: as §2

[8] = test system: chickweed; experiment: Test D postemergence; format: in vivo, Stellaria media; settings: scale 0 to 100
From the text: as §2

| SMILES | pest or weed control at 125 g/ha [1] | pest or weed control at 500 g/ha [1] | pest or weed control at 125 g/ha [2] | pest or weed control at 500 g/ha [2] | Ryegrass, Italian plant response rating (0 to 100) ([3]; 31 g ai/ha) | Ryegrass, Italian plant response rating (0 to 100) ([3]; 62 g ai/ha) | Plant response rating (scale of 0 to 100 where 0 is no effect and 100 is complete control) ([3]; 125 g ai/ha) | Plant response rating, Kochia ([4]; 125 g ai/ha) | further results |
| --- | --- | --- | --- | --- | --- | --- | --- | --- | --- |
| CCn1nc(-c2ccc(F)cc2)nc1C(=O)c1ccnc(C(F)(F)F)c1 [Compound 19, [1-ethyl-3-(4-fluorophenyl)-1H-1,2,4-triazol-5-yl][2-(trifluoromethyl)-4-pyridinyl]methanone] | 0% | 0% | 0% | 0% | – | – | – | – | – |
| COc1nc(-c2ccc(F)cc2)nn1Cc1ccnc(C(F)(F)F)c1 [Compound 9, 4-[[3-(4-fluorophenyl)-5-methoxy-1H-1,2,4-triazol-1-yl]methyl]-2-(trifluoromethyl)pyridine] | 90% | 100% | 90% | 100% | 5 | 25 | 65 | – | Plant response rating (scale of 0 to 100 where 0 is no effect and 100 is complete control) ([3]; 250 g ai/ha): 85 |
| CCOc1nc(-c2ccc(Cl)cc2)nn1Cc1ccnc(C(F)(F)F)c1 [Compound 26] | – | – | – | – | – | – | – | 90 | Plant response rating, Kochia ([4]; 31 g ai/ha): 80 |
| CCCOc1nc(-c2ccccc2)nn1Cc1ccnc(C(F)(F)F)c1 [Compound 33] | – | – | – | – | – | – | – | 90 | Plant response rating, Kochia ([4]; 500 g ai/ha): 90 |
| COc1nc(-c2ccc(C(F)(F)F)cc2)nn1Cc1ccnc(C(F)(F)F)c1 [Compound 25] | – | – | – | – | – | – | – | 90 | Plant response rating, Kochia ([4]; 31 g ai/ha): 90 |
| CCCc1nc(-c2ccc(F)cc2)nn1Cc1ccnc(C(F)(F)F)c1 [Compound 6, 4-[[3-(4-fluorophenyl)-5-propyl-1H-1,2,4-triazol-1-yl]methyl]-2-(trifluoromethyl)pyridine] | 90% | 90% | 100% | 100% | 30 | 70 | 80 | – | Plant response rating (scale of 0 to 100 where 0 is no effect and 100 is complete control) ([3]; 250 g ai/ha): 100 |
| CCn1nc(-c2ccc(F)cc2)nc1C(O)c1ccnc(C(F)(F)F)c1 (stereo not drawn) [Compound 15, α-[1-Ethyl-3-(4-fluorophenyl)-1H-1,2,4-triazol-5-yl]-2-(trifluoromethyl)-4-pyridinemethanol] | 0% | 10% | 0% | 10% | – | – | – | – | – |
| COc1nc(-c2ccccc2)nn1Cc1ccnc(C(F)(F)F)c1 [Compound 32] | – | – | – | – | 0 | 0 | 0 | 80 | Plant response rating, Kochia ([4]; 500 g ai/ha): 90; Plant response rating (scale of 0 to 100 where 0 is no effect and 100 is complete control) ([3]; 250 g ai/ha): 10 |
| Cn1nc(-c2ccc(F)cc2)nc1Oc1cccc(C(F)(F)F)c1 [Compound 5, 3-(4-fluorophenyl)-1-methyl-5-[3-(trifluoromethyl)phenoxy]-1H-1,2,4-triazole] | 30% | 90% | 50% | 100% | – | – | – | – | – |
| CCCn1nc(-c2ccc(F)cc2)nc1Cc1ccnc(C(F)(F)F)c1 [Compound 17, 4-[[3-(4-fluorophenyl)-1-propyl-1H-1,2,4-triazol-5-yl]methyl]-2-(trifluoromethyl)pyridine] | 90% | 90% | 70% | 100% | – | – | – | – | – |
| Cn1nc(-c2ccc(F)cc2)nc1C(O)c1ccnc(C(F)(F)F)c1 (stereo not drawn) [Compound 14, α-[3-(4-fluorophenyl)-1-methyl-1H-1,2,4-triazol-5-yl]-2-(trifluoromethyl)-4-pyridinemethanol] | 20% | 30% | 40% | 80% | – | – | – | – | – |
| CCc1nc(-c2ccc(C(F)(F)F)cc2)nn1Cc1ccnc(C(F)(F)F)c1 [Compound 1, 4-[[5-ethyl-3-[4-(trifluoromethyl)phenyl]-1H-1,2,4-triazol-1-yl]methyl]-2-(trifluoromethyl)pyridine] | 100% | 100% | 90% | 100% | 5 | 10 | 90 | – | Plant response rating: Pigweed ([5]; 31 g ai/ha): 80; Plant response rating: Pigweed ([5]; 62 g ai/ha): 85; Plant response rating: Pigweed ([5]; 125 g ai/ha): 85; Plant response rating: Pigweed ([5]; 250 g ai/ha): 85; Plant response rating: Chamomile ([6]; 31 g ai/ha): 25; Plant response rating: Chamomile ([6]; 62 g ai/ha): 35; Plant response rating: Chamomile ([6]; 125 g ai/ha): 55; Plant response rating: Chamomile ([6]; 250 g ai/ha): 65; Plant response rating: Pigweed ([7]; 62 g ai/ha): 100; Plant response rating: Pigweed ([7]; 125 g ai/ha): 100; Plant response rating: Pigweed ([7]; 250 g ai/ha): 100; Plant response rating: Chickweed ([8]; 31 g ai/ha): 75; Plant response rating: Chickweed ([8]; 62 g ai/ha): 80; Plant response rating: Chickweed ([8]; 125 g ai/ha): 85; Plant response rating: Chickweed ([8]; 250 g ai/ha): 90 |
| CS(=O)(=O)c1nc(-c2ccc(F)cc2)nn1Cc1ccnc(C(F)(F)F)c1 [Compound 29, 4-[[3-(4-fluorophenyl)-5-(methylsulfonyl)-1H-1,2,4-triazole-1-yl]methyl]-2-(trifluoromethyl)pyridine] | 0% | 0% | 0% | 0% | – | – | – | – | – |

From patent publication US10681909B2, “Herbicidal triazoles” (FMC Corporation, priority 2014, dated 2020)
